Experimental data as given in patent US20240041976A1, “COMPOSITION AND USE” (priority 2020, published 2024).
Like-named read-outs stand apart in the source and are kept apart here. No end group written: not given here.

Assays:
[1] = tested on: S. aureus ATTC 33591 biofilm; assay: LIVE/DEAD biofilm staining, confocal microscopy; format: cell-based, Staphylococcus aureus; conditions: data not shown
[2] = tested on: S. pseudintermedius MRSP 45; assay: microbe, parasite or virus in culture; format: cell-based, Staphylococcus pseudintermedius; conditions: Staphylococcus pseudintermedius, MRSP45, MRSP 45, 24 h, read-out: MIC, single component
Protocol: (§1) Antimicrobial activity was measured using the AAMP assay (Wiegand et al., 2008, Nat. Protoc., Vol. 3(2), p 163-175).
(§2) Synergy testing was done with a microtiter plate checkerboard assay as previously described (Orhan et al., 2005, J. Clin. Microbiol., Vol. 43(1), p 140-143). Briefly, equal amounts of antimicrobial A were applied on microtiter plate 1 in wells A1-H1 and then diluted two-fold to wells 2-12. Similarly, equal amounts of antimicrobial B were applied on microtiter plate 2 in wells A1-A12 and diluted two-fold in wells B-H. Volumes of 50 μl of antimicrobial A from each well of microtiter plate 1 were transferred into microtiter plate 3, except for wells H1-H12. Similarly, the same volumes were transferred from microtiter plate 2 into plate 3, except for wells A1-A8. A 100 μl volume of 25 times diluted ON bacterial culture of MRSA was transferred into each well of plate 3. A 50 μl volume of pure broth was added into each well in lines H1-H12 and A1-A8 which were used to estimate MIC values of pure substances (blank).
(§3) Antimicrobial activity was measured using the AAMP assay as described in Example 2.
(§4) Synergy testing was performed as in Example 2.

[3] = tested on: MRSA ATCC 33591-lux; assay: AAMP assay and checkerboard synergy; format: cell-based, Staphylococcus aureus; conditions: MRSA ATCC 33591-lux
Protocol: as §1, §2
(§5) Three-component synergy was assessed by mixing the three components (100 μg of PenG, 50 μg of GarKS and 2.5 μg of MP1) into one well of a microtiter plate, compared with activity of individual antimicrobials on the same plate. The fractional inhibition concentration (FIC) which was used to define synergy was calculated as set forth in Example 1.

[4] = tested on: MRSA 43484; assay: AAMP assay and checkerboard synergy; format: cell-based, Staphylococcus aureus; conditions: MRSA 43484; for MIC: Staphylococcus aureus, 24 h, read-out: MIC, single antimicrobial
Protocol: as §1, §2, §5

[5] = tested on: MRSA USA-300; assay: AAMP assay and checkerboard synergy; format: cell-based, Staphylococcus aureus; conditions: MRSA USA-300; for MIC: Staphylococcus aureus, 24 h, read-out: MIC, single antimicrobial
Protocol: as §1, §2, §5

[6] = tested on: S. aureus biofilms; assay: BOAT followed by CFU counting; format: cell-based, Staphylococcus aureus; conditions: 5 mg/ml garvicin KS, 0.1 mg/ml micrococcin P1, 10 mg/ml penicillin G
Protocol: The procedure for the BOAT assay was repeated as described above except that instead of adding the TTC solution, the antimicrobial-challenged cells were resuspended in TSB and then serially diluted in TSB buffer. Serial dilutions of the bacterial cells were than plated on BHI agar plates and incubated at 37° C. for 24 h. The results were then assessed by direct counting of the developed colonies and the colony forming unit (CFU) was determined.

[7] = tested on: S. haemoliticus NVH 409; assay: organism not typed; format: cell-based
Protocol: as §1, §2, §3, §4

[8] = tested on: E.faecalis 3689; assay: microbe, parasite or virus in culture; format: cell-based, Enterococcus faecalis
Protocol: as §1, §2, §3, §4

[9] = tested on: E. faecalis 3351; assay: microbe, parasite or virus in culture; format: cell-based, Enterococcus faecalis
Protocol: as §1, §2, §3, §4

[10] = tested on: S. haemolyticus strains 4068-4073; assay: microbe, parasite or virus in culture; format: cell-based; conditions: 5 hour incubation
Protocol: Bacteriocins and antimicrobial assays. K1-EJ and garvicin KS peptides (Gak-A, -B and -C) were synthesized by Pepmic Co., Ltd, China, with >95% purity. These bacteriocins were all solubilized in 0.1% (vol/vol) trifluoracetic acid (TFA; Sigma-Aldrich). Micrococcin P1 was purchased from Cayman Chemical, Michigan, USA with 95% purity and solubilized in a 50% (v/v) mixture of isopropanol (Merck) […] (Sigma-Aldrich) at a stock concentration of 1 mg/ml. Cell growth inhibition assays and antimicrobial synergy determination was performed in line with Example 1.
To investigate whether there was synergy between the three bacteriocins (K1-EJ, GarKS and MP1), a checkboard antimicrobial assay was performed. The selected strains were treated for 5, 24 and 48 h with a range of concentrations of K1-EJ, GarKS and MP1 alone or in different combinations. […] Double combinatorial treatments (GarKS/MP1; K1-EJ/GarKS; K1-EJ/MP1) increased the antimicrobial activity of the bacteriocins. […] This was particularly evident at the 24 and 48 h time-points.

[11] = tested on: lactococci, listeria and enterococci; assay: MIC against other indicators (data not shown); format: cell-based
Protocol: as §1

[12] = tested on: MRSA ATCC 33521-lux; assay: Agar plate spot assay, resistance development (FIG. 4); format: cell-based, Staphylococcus aureus; conditions: up to 72 h incubation at 37° C.
Protocol: Pure GarKS and PenG each at 50 μg, MP1 at 0.1 μg, were applied at the indicated spots. The pictures of the plates were taken after 24, 48 and 72 h of incubation at 37° C. Sections of the inhibition zones on the right show resistance development seen as small white dots (in the inhibition zones of GarKS and MP1).

Q: Which results are given for `CC1(C)S[C@@H]2[C@H](NC(=O)Cc3ccccc3)C(=O)N2[C@H]1C(=O)O` [Penicillin G]?
A: LIVE/DEAD staining pattern [1]: increased resistance; MIC ([2]; Table 9): > 125 µg/mL; MIC of GarKS in comb. antibiotic/GarKS/MP1 [3]: 4 µg/mL; MIC of MP1 in comb. antibiotic/GarKS/MP1 [3]: 0.08 µg/mL; MIC of MP1 in comb. with the labelled antibiotic [3]: 0.16 µg/mL; MIC of the antibiotic in comb. with GarKS and MP1 [3]: 8 µg/mL; MIC of the antibiotic in comb. with MP1 [3]: 16 µg/mL; MIC of the antimicrobial in comb. with GarKS [3]: 16 µg/mL; MIC ([3]; Staphylococcus aureus, 24 h, read-out: MIC, single antimicrobial): < 2500 µg/mL; MIC of GarKS in comb. antibiotic/GarKS/MP1 [4]: 4 µg/mL; MIC of MP1 in comb. antibiotic/GarKS/MP1 [4]: 0.08 µg/mL; MIC of MP1 in comb. with the labelled antibiotic [4]: 0.3 µg/mL; MIC of the antibiotic in comb. with GarKS and MP1 [4]: 8 µg/mL; MIC of the antibiotic in comb. with MP1 [4]: 32 µg/mL; MIC of the antimicrobial in comb. with GarKS [4]: 16 µg/mL; MIC [4]: < 2500 µg/mL; MIC of GarKS in comb. antibiotic/GarKS/MP1 [5]: 4 µg/mL; MIC of MP1 in comb. antibiotic/GarKS/MP1 [5]: 0.08 µg/mL; MIC of MP1 in comb. with the labelled antibiotic [5]: 0.3 µg/mL; MIC of the antibiotic in comb. with GarKS and MP1 [5]: 8 µg/mL; MIC of the antibiotic in comb. with MP1 [5]: 32 µg/mL; MIC of the antimicrobial in comb. with GarKS [5]: 16 µg/mL; MIC [5]: < 2500 µg/mL; cell viability, LogCFU after BOAT [6]: reduction in the viability of the non-MRSA strains

Q: Which “MIC, single antimicrobial” value [7] does the source give for “MKFKFNPTGTIVKKLTQYEINWYKQQYGRYPWERPVA [Hybrid K1-EJ]” here?
A: >25 µg/mL

Q: And the “MIC of MP1 in comb. with the labelled antimicrobial” value ([7]; S. haemoliticus NVH 409)?
A: 0.08 µg/mL

Q: What about the “MIC of the labelled antimicrobial in comb. with MP1” value (“MIC of the labelled antimicrobial” for short) ([7]; S. haemoliticus NVH 409) of the same molecule?
A: 3 µg/mL

Q: What about the “MIC, single antimicrobial” value [8]; 3689 of the same molecule?
A: >25 µg/mL

Q: And the “MIC of MP1 in comb. with the labelled antimicrobial” value ([8]; E.faecalis 3689)?
A: 3 µg/mL

Q: What about the “MIC of the labelled antimicrobial” value ([8]; E.faecalis 3689) of the same molecule?
A: 1.5 µg/mL

Q: And the “MIC, single antimicrobial” value [9]; 3351?
A: >25 µg/mL

Q: What about the “MIC of MP1 in comb. with the labelled antimicrobial” value ([9]; E. faecalis 3351) of the same molecule?
A: 5.6 µg/mL

Q: What about the “MIC of the labelled antimicrobial” value ([9]; E. faecalis 3351) of the same molecule?
A: 3 µg/mL

Q: And the “MIC50 values over strains” value [10]?
A: 0.78 µg/mL

Q: How did the “MIC values, range” value [11] turn out when `C/C=C(\NC(=O)c1csc(-c2csc(-c3ccc4c(n3)-c3csc(n3)[C@H]([C@@H](C)O)NC(=O)c3csc(n3)[C@H](C(C)C)NC(=O)c3csc(n3)/C(=C/C)NC(=O)[C@H]([C@@H](C)O)NC(=O)c3csc-4n3)n2)n1)C(=O)NC[C@@H](C)O` [MP1, micrococcin P1] was run?
A: 1 to 10 µg/mL

Q: And the MIC ([7]; S. haemoliticus NVH 409, read-out: MIC, single antimicrobial)?
A: 1.25 µg/mL

Q: What about the MIC ([8]; Enterococcus faecalis, E.faecalis 3689, read-out: MIC, single antimicrobial) of the same molecule?
A: > 45 µg/mL

Q: And the MIC ([9]; Enterococcus faecalis, E. faecalis 3351, read-out: MIC, single antimicrobial)?
A: > 45 µg/mL

Q: What about the “resistance development on agar plates” value [12] of the same molecule?
A: resistant colonies of MRSA appeared within the inhibition zones

Q: And the MIC50 ([10]; Staphylococcus haemolyticus, STRAINS40684073, read-out: MIC50 values over strains)?
A: 0.02 to 0.15 µg/mL

Q: What about the MIC ([2]; Table 8) of the same molecule?
A: > 2.5 µg/mL

Q: What about the “MIC of the antimicrobial in comb. with GarKS” value (from here on “MIC of the antimicrobial”) [3] of the same molecule?
A: 0.16 µg/mL

Q: And the “MIC of the antimicrobial” value [4]?
A: 0.16 µg/mL

Q: And the MIC [4]?
A: 2.5 µg/mL

Q: What about the “MIC of the antimicrobial” value [5] of the same molecule?
A: 0.16 µg/mL

Q: What about the MIC [5] of the same molecule?
A: 2.5 µg/mL

B1: Garvicin KS: three-peptide leaderless bacteriocin (GarA, GarB, GarC; SEQ ID NO:6-8), peptides synthesized (peptide, listed as Lactococcus garvieae)
chain 1: MGAIIKAGAKIVGKGVLGGGASWLGWNVGEKIWK
chain 2: MGAIIKAGAKIIGKGLLGGAAGGATYGGLKKIFG
chain 3: MGAIIKAGAKIVGKGALTGGGVWLAEKLFGGK
Q: Which results are given for B1?
A: MIC values, range [11]: 1 to 20 µg/mL; resistance development on agar plates [12]: resistant colonies of MRSA appeared within the inhibition zones; LIVE/DEAD staining pattern [1]: increased resistance; MIC, single antimicrobial [3]: 32 µg/mL; MIC, single antimicrobial [4]: 32 µg/mL; MIC, single antimicrobial [5]: 32 µg/mL; cell viability, LogCFU after BOAT [6]: most dramatic reduction in LogCFU levels for all the strains
